We go through five compounds from paper PMC12655252, “Synthesis of 1H-Pyrrolo[3,2-g]isoquinoline Derivatives as Ligands Targeting Haspin Kinase” (Molecules, 2025).

By IC50 is commonly meant the concentration at which inhibition is half-maximal.

In one assay the target is T1, HsHaspin-kd (Homo sapiens, UniProt Q8TF76).
T1 construct: kinase domain, amino acids 470–798 cloned in pGEX-6P-3; made in house; host or cells: bacteria
T1 sequence (Q8TF76 470-798): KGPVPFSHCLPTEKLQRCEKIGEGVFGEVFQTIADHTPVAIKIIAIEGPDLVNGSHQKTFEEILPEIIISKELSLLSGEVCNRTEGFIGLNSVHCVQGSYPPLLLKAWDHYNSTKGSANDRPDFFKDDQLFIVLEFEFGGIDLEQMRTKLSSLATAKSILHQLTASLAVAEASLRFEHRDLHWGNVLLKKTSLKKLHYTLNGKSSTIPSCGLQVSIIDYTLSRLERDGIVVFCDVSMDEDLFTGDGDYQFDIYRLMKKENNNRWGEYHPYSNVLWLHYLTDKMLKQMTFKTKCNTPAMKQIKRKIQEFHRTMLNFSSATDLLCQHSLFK
Briefly: ADP-Glo in vitro kinase inhibition assay, Haspin. The assay is classed as biochemical. The following applies: for remaining activity at 1 µM: 1 μM compound; for remaining activity at 1 µM / IC50 / remaining activity at 10 µM: 10 μM ATP, duplicate; for remaining activity at 1 µM / remaining activity at 10 µM: read-out: Haspin % residual activity; for remaining activity at 10 µM: 10 μM compound; for SI: selectivity index = IC50 second most inhibited kinase/IC50 Haspin: second most inhibited kinase named in parentheses below the value (PIM1 or CLK1). On the procedure:
(§1) We previouly reported that substitution at the 3-position with halogen atoms or pyridinyl or formyl groups was compatible with high potency toward Haspin kinase. To check if the current structural changes were in line with potent Haspin inhibition and high selectivity, enabling consideration of these compounds as possible targeting ligands for the PROTAC approach, compounds 2, 3, 8–11, and 15–17 were evaluated toward a panel of eight protein kinases, including Haspin, as well as other kinases known to be frequently cross-inhibited (CLK1, DYRK1A, CDK9/Cyclin T, GSK-3β, CK1ε, CDK5/p25, and Pim1) (Table 1). The percentage of residual kinase activity was evaluated at 10 μM and 1 μM compound concentrations. […].
(§2) Kinase inhibition was tested in 384-well plates using the ADP-GloTM assay kit (Promega, Madison, WI, USA) according to the procedure recommended by the manufacturer. Reactions were set up in a final volume of 6 μL in an appropriate kinase buffer (10 mM MgCl2, 1 mM EGTA, 1 mM DTT, 25 mM Tris-HCl pH 7.5, 50 μg/mL heparin) with either protein or peptide as the substrate in the presence of 10 μM ATP. To stop the kinase reaction, 6 μL of ADP-GloTM Kinase Reagent was added after 30 min at 30 °C. Then, after 50 min of incubation at room temperature (RT), 12 μL of Kinase Detection Reagent was added. The transmitted signal was measured after 1 h at RT using the Envision (Perkin Elmer, Waltham, MA, USA) microplate luminometer and expressed in relative light units (RLU). In order to determine the half-maximal inhibitory concentration (IC50), all assays were performed in duplicate in the absence or presence of increasing doses of the tested compounds. GraphPad Prism10 software (GraphPad Software, San Diego, CA, USA) was used to fit dose–response curves and to determine the IC50 values. Kinase activities are given as percentages of maximal activity, i.e., measured in the absence of inhibitor. Peptide substrates were obtained from Proteogenix (Schiltigheim, France).
(§3) The following protein kinases were analyzed in this study: CDK5/p25 (human, vector pGEX-2T, expressed in bacteria; kindly provided by Dr. J. H. Wang) was assayed with 0.8 μg/μL of histone H1 as substrate; HsCDK9/CyclinT (NP_001252/KAI4065659, cloned in pTEFb vector, expressed by baculovirus in Sf9 insect cells) were assayed with 0.27 μg/μL of the following peptide: […], as substrate; HsCK1ε (NP_001885, cloned in pFAST-BAC vector, expressed in Sf9 insect cells) was assayed with 0.022 μg/μL of the following peptide: […]pAYSITA (“Sp” stands for phosphorylated serine) as CK1-specific substrate; HsGSK3β (AAH12760, cloned in pFAST-BAC, expressed by baculovirus in Sf9 insect cells) were assayed with 0.010 μg/μL of GS-1 peptide, a GSK-3-selective substrate ([…]pEDEEE); HsHaspin-kd (NP_114171, kinase domain, amino acids 470–798 cloned in pGEX-6P-3, expressed in bacteria) was assayed with 0.007 μg/μL of histone H3 (1–21) peptide ([…]) as substrate; Pim-1 (KAI4018123, expressed in bacteria) was assayed with 0.8 μg/μL of histone H1 as substrate; HsCLK1 (NP_004062, cloned in pFAST-BAC, expressed in Sf9 insect cells) was assayed with 0.027 μg/μL of the peptide: […]; RnDYRK1A-kd (Rattus norvegicus, amino acids 1–499, pGEX-2TK, expressed in bacteria, gift from Dr. W. Becker, Aachen, Germany) was tested in the presence of 0.033 μg/μL of the peptide: […].
(ADP-Glo first removes unused ATP, then detects ADP through luciferase.)

Another assay deals with T2, Pim-1 (Homo sapiens, UniProt P11309).
T2 construct: made in house; host or cells: bacteria
T2 sequence (P11309 whole entry): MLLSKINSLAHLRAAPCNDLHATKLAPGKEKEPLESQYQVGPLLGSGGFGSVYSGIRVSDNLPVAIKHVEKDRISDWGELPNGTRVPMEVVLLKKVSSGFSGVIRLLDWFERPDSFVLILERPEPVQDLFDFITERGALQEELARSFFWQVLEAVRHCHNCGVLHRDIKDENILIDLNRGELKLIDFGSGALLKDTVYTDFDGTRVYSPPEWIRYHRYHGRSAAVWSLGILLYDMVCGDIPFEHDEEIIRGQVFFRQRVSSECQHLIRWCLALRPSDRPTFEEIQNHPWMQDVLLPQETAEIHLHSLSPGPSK
The experiment in a line: ADP-Glo in vitro kinase inhibition assay, Pim-1. The assay is classed as biochemical. The note with it: 10 μM ATP; for remaining activity at 1 µM: 1 μM compound; for remaining activity at 1 µM / remaining activity at 10 µM: read-out: PIM1 % residual activity; for IC50: read-out: PIM1 IC50; for remaining activity at 10 µM: 10 μM compound. On the procedure:
as §1, §2, §3

For `Nc1ccc(-c2c[nH]c3cc4cnccc4cc23)cn1` [Compound 3, 5-(1H-Pyrrolo[3,2-g]isoquinolin-3-yl)pyridin-2-amine], on HsHaspin-kd, the remaining activity at 1 µM came to 7%, 10.6 nM corresponded to half-maximal inhibition (IC50), the remaining activity at 10 µM stood at 1% and the “SI: selectivity index = IC50 second most inhibited kinase/IC50 Haspin” value is recorded as 8.8. In addition, on Pim-1, the remaining activity at 1 µM was 17%, the concentration for half-maximal inhibition (IC50) was 93.7 nM and the remaining activity at 10 µM was 7%.
Take `COC(=O)/C=C/c1c[nH]c2cc3cnccc3cc12` [Compound 8, Methyl (E)-3-(1H-Pyrrolo[3,2-g]isoquinolin-3-yl)prop-2-enoate]: on HsHaspin-kd, the remaining activity at 1 µM worked out at 11%, the IC50 turned out to be 15.5 nM, the remaining activity at 10 µM was determined as 6% and the “SI: selectivity index = IC50 second most inhibited kinase/IC50 Haspin” value was found to be 26.1. In addition, on Pim-1, the remaining activity at 1 µM is 26%, the IC50 amounted to 404 nM and the remaining activity at 10 µM was 8%.
As for `c1cc2cc3c(-c4cc[nH]n4)c[nH]c3cc2cn1` [Compound 15, 3-(1H-Pyrazol-3-yl)-1H-pyrrolo[3,2-g]isoquinoline], on HsHaspin-kd, the remaining activity at 1 µM is 0%, 30.6 nM corresponded to half-maximal inhibition (IC50), the remaining activity at 10 µM was 0% and the “SI: selectivity index = IC50 second most inhibited kinase/IC50 Haspin” value is greater than 7. On Pim-1, the remaining activity at 1 µM is 44%, the IC50 turned out to be 222 nM and the remaining activity at 10 µM worked out at 0%.
Consider `c1cc2cc3c(-c4cn[nH]c4)c[nH]c3cc2cn1` [Compound 16, 3-(1H-Pyrazol-4-yl)-1H-pyrrolo[3,2-g]isoquinoline], for which, at HsHaspin-kd, the remaining activity at 1 µM was 0%, the IC50 was found to be 12.4 nM, the remaining activity at 10 µM was found to be 0% and the “SI: selectivity index = IC50 second most inhibited kinase/IC50 Haspin” value was 8.2. Besides, at Pim-1, the remaining activity at 1 µM was determined as 20% and the remaining activity at 10 µM turned out to be 0%.
Regarding `c1c[nH]c(-c2c[nH]c3cc4cnccc4cc23)c1` [Compound 17, 3-(1H-Pyrrol-2-yl)-1H-pyrrolo[3,2-g]isoquinoline], on HsHaspin-kd, the remaining activity at 1 µM was determined as 6%, the half-inhibitory concentration (IC50) was determined as 81.3 nM and the remaining activity at 10 µM was found to be 0%. Further, at Pim-1, the remaining activity at 1 µM worked out at 91% and the remaining activity at 10 µM was 33%.
